Here are results for 13 molecules from patent publication US12467928B2, “N-terminal modifier agents and binders for treating and analyzing peptides” (Encodia, Inc., priority 2023, dated 2025).

One assay addresses wild-type hCAII protein (Homo sapiens, UniProt P00918). The assay is described as follows: colorimetric IC50 assay of NTMs and NTM-AAEIR peptides. In kind it is biochemical. Particulars: for Fold Enhancement (NTM IC50) / Fold Enhancement (NTM-AAEIR IC50): relative to NTM M64; for Fold Enhancement (NTM-AAEIR IC50): NTM on AAEIR. Here is the method: The colorimetric assay used 300 nM of wild-type carbonic anhydrase incubated in 45 μL of 50 mM MOPS (pH 7.5), 33 mM Na2SO4, and 1 mM EDTA aliquoted into a 96-well, clear, flat-bottom plate. To each column of the plate, a 1/10 dilution series from 1 mM to 0.1 nM of each NTM was added and incubated at 25° C. for 10 minutes to reach binding equilibrium. […] The initial rate of hydrolysis was observed over the first 60 seconds. The slopes versus the concentration of NTM were put into a non-linear regression equation to determine the IC50 of the NTM to the carbonic anhydrase.

The target in assay [1] is human carbonic anhydrase II (hCAII) (Homo sapiens, UniProt P00918). Kind of assay: hCAII functional assay (pNP-OAc hydrolysis) with SABA-modified peptides. In kind it is biochemical. Here is the method:
A functional assay for hCAII enzyme was set up. Carbonic anhydrase catalyzes the hydrolysis of 4-nitrophenyl acetate (4-NPA) to nitrophenol, which can be monitored by absorbance at 400 nm. The enzymatic carbonic anhydrase assay generally includes 0.2-1.0 μM enzyme and 10-500 μM 4-NPA in 20-200 μL in assay buffer. […] Metal chelating agents (EDTA or EGTA), salt (NaCl, sulfate), detergent (Tween or Triton), and organic additives (acetonitrile, DMSO) may be employed to facilitate enzyme stability and reagent solubility. For the assay, 1 μM human carbonic anhydrase II, 50 mM MOPS (pH 7.6), 33 mM disodium sulfate, and 1 mM EDTA. To generate NTM-modified peptides, azide-derivatized peptides (via azide-PEG-amine and carbodiimide coupling to C-terminus of peptide) were conjugated to DBCO-coupled beads. […] To evaluate P1 dependence of the binding reaction, multiple P1 residues has been tested.

Assay [2] deals with biotinylated peptides M64-P1-P2-ΔK-(PEG9)(PEG9)-K(Biotin). Kind of assay: bio-layer interferometry (BLI) of engineered binders. The class given is binding. Particulars: M64 peptide, 22° C. Here is the method:
Bio-layer interferometry (BLI) is an optical analytical and label-free method to directly measure kinetics between two biomolecules. In this technology, one biomolecule is immobilized on a surface in the form of a small tip, this tip is then dipped in a microplate containing the second biomolecule of interest. White light is directed down the tip to the tip surface where the binding is measured as a shift in wavelength that is caused as a result of the interference between incident and reflected light. More specifically, there are two surfaces at the tip, a reference layer and the experiment layer, the latter is where the biomolecules immobilize and bind. As the distance between these two layers increases due to biomolecules binding and immobilizing, the shift between incident and reflected wavelengths increases as caused by the light waves interfering at the two layers. Therefore, the size and the number of biomolecules that bind onto the surface is proportional to the shift measured. This shift is plotted against time to give a sensogram from which kon, koff and ultimately KD can be calculated.
All binding experiments were carried out on an 8-channel Gator Prime (Gator Bio) instrument. To measure the affinity of each binder-peptide pair, biotinylated peptides were immobilized on Streptavidin coated biosensor tips (Gator Bio), which were dipped in six binder concentrations and two controls. All binding assays were performed at 22° C. in 96 well polypropylene plates (Gator Bio) and carried out in triplicates with a well volume of 200 uL. Streptavidin coated biosensors were hydrated in the baseline buffer for 10 mins before each assay. All binding experiments used biotinylated peptides with the following sequence construct, M64-P1-P2-ΔK-(PEG9)(PEG9)-K(Biotin) and all peptides were diluted in the baseline buffer. Binders having sequences set forth in SEQ ID NO: 75-SEQ ID NO: 82 were tested. The binders originated from three different metalloenzyme scaffolds and were engineered according to the methods disclosed in Examples 4-6. […] All binders were serially diluted using the baseline buffer either by 2- or 3-fold. Baseline buffer consisted of 50 mM MOPS pH 7.5, 33 mM NaSO4, 1 mM EDTA and 0.1% Tween-20. The following protocol was used for each binding assay under shaker speed of 1000 rpm, which generated the best quality binding with minimal sensor to sensor variation and baseline drift (Table 14).
Between each binding assay, if biosensors were used more than once, the following protocol was used to regenerate the biosensor for subsequent binding assays (Table 15). Regeneration buffer consisted of […] and 10 mM Glycine pH 2.0.
Analysis of binding curves. […] Binding curves were aligned to the association step and subtracted using the reference curve. Each set of processed curves were then fit locally and inspected. The residual plot, R2 and Chi2 were examined to be <0.1 nm, […] and <3 nm respectively. […] Next, the qualifying curves were filled globally and the kinetic parameters kobs, kon, koff and KD were calculated along with their errors. The errors were inspected to be less than […] of its calculated value. Finally, the theoretical shift at equilibrium from the qualifying curves were filled on a steady state plot, and the KD and Rmax (theoretical maximum binding capacity in nm) were calculated from that curve. The kinetic parameters of exemplary generated binders (having sequences set forth in SEQ ID NO: 75-SEQ ID NO: 82) with their respective targets (indicated as P1 residue of immobilized peptides) are shown in Table 16.

The mark [3] stands for this setting: 1 μM hCAII, 500 μM pNP-OAc, 10 minutes at 37° C., pNP release over 180 s.

Peptide text beside a SMILES is read from it. * marks the point of attachment. Benzoyl(4-SO2NH2) = NS(=O)(=O)c1ccc(C(=O)*)cc1

Take `Nc1cc(S(N)(=O)=O)ccc1C(=O)O` [2-NH2, 2-Amino-4-sulfamoylbenzoic acid]: the “Fold Enhancement (NTM IC50)” value on wild-type hCAII protein came to 0.3.

Usually IC50 stands for the midpoint of a concentration-inhibition curve. Molecule `C[C@H](NC(=O)c1ccc(S(N)(=O)=O)cc1)C(=O)N[C@@H](C)C(=O)N[C@@H](C)C(=O)N[C@@H](C)C(=O)N[C@@H](CCC(=O)O)C(N)=O` [(SAB)AAAAE] ({Benzoyl(4-SO2NH2)}-AAAAE-NH2) showed a concentration for half-maximal inhibition (IC50) in assay [1] (SABA-P1-P2 groups) of 48 nM. That is a double-digit nanomolar value.

For `C[C@H](NC(=O)c1ccc(S(N)(=O)=O)cc1)C(=O)N[C@@H](Cc1ccccc1)C(=O)N[C@@H](C)C(=O)N[C@@H](C)C(=O)N[C@@H](CCC(=O)O)C(N)=O` [(SAB)AFAAE] ({Benzoyl(4-SO2NH2)}-AFAAE-NH2), the IC50 in assay [1] (setting [3]) and in assay [1] (SABA-P1-P2 groups) was 183 nM in each case.

On to `C[C@H](NC(=O)[C@H](C)NC(=O)[C@H](Cc1ccccc1)NC(=O)c1ccc(S(N)(=O)=O)cc1)C(=O)N[C@@H](C)C(=O)N[C@@H](CCC(=O)O)C(N)=O` [(SAB)FAAAE] ({Benzoyl(4-SO2NH2)}-FAAAE-NH2), for which the 50% inhibitory concentration (IC50) in assay [1] (setting [3]) and in assay [1] (SABA-P1-P2 groups) was 45 nM each time.

With `NS(=O)(=O)c1ccc(C(=O)O)cn1` [M65, 6-Sulfamoylpyridine-3-carboxylic acid], at wild-type hCAII protein, the “Fold Enhancement (NTM IC50)” value was 2.2 and the “Fold Enhancement (NTM-AAEIR IC50)” value came to 0.3.

`NS(=O)(=O)c1ccc(C(=O)O)nc1` [M66]: 992 nM corresponded to half-maximal inhibition against wild-type hCAII protein (free NTM, 300 nM wild-type carbonic anhydrase, 1 mM pNPA, 25° C.) (IC50). Further, the “Fold Enhancement (NTM IC50)” value at wild-type hCAII protein amounted to 0.5.

Take `NS(=O)(=O)c1ccc(C(=O)O)c([N+](=O)[O-])c1` [M67, 2Nitro-4-sulfamoylbenzoic acid]: on wild-type hCAII protein, the “Fold Enhancement (NTM IC50)” value was 3.8 and the “Fold Enhancement (NTM-AAEIR IC50)” value is 2.0.

As for `COc1cc(S(N)(=O)=O)ccc1C(=O)O` [M73, 2-Methoxy-4-sulfarnoylbenzoic acid], the “Fold Enhancement (NTM IC50)” value on wild-type hCAII protein is recorded as 0.0.

`Cc1cc(S(N)(=O)=O)ccc1C(=O)O` [M74, 2-methyl-4 sulfamoylbenzoic acid]: on wild-type hCAII protein, the “Fold Enhancement (NTM IC50)” value is given as 0.2.

For the molecule `NS(=O)(=O)c1ccc(C(=O)O)c(F)c1` [M75, 2-Fluoro-4-sulfamoylbenzoic acid], on wild-type hCAII protein, the “Fold Enhancement (NTM IC50)” value worked out at 2.1 and the “Fold Enhancement (NTM-AAEIR IC50)” value was found to be 2.2.

With `NS(=O)(=O)c1ccc(C(=O)O)c(Cl)c1` [M76, 2-Chloro-4-sulfamoylbenzoic acid], on wild-type hCAII protein, the “Fold Enhancement (NTM IC50)” value was found to be 2.6 and the “Fold Enhancement (NTM-AAEIR IC50)” value was found to be 1.9.

For the molecule `NS(=O)(=O)c1ccc(C(=O)O)cc1F` [M88, 3-Fluoro-4-sulfamoylbenzoic acid], on wild-type hCAII protein, the “Fold Enhancement (NTM IC50)” value is 4.3 and the “Fold Enhancement (NTM-AAEIR IC50)” value came to 1.6.

B1: 75 (protein)
chain: EWGYASHNGPDHWHELFPNAKGENQSPIELHTKDIRHDPSLQPWSVSYDGGSAKTILNNGKTLGVVFDDTYDRSMLRGGPLPGPYRLREFHLHWGSSDDHGSEHTVDGVKYAAELHLLHWNPKYNTFKEALKQRDGLAVIGIFLKIGHENGEFQIFLDALDKIKTKGKEAPFTKFDPSSLFPASRDYWTYQGSMTIPPLMEAVVWLLLKEPMTVSSDQMAKLRSLLSSAENEPPVPLVSNWRPPQPINNRVVRASFK
modifications: Synthetic binder, S279_0004
For orientation: Kd means the free concentration of one partner at which half of the binding sites on the other are occupied at equilibrium, for simple one-to-one binding. Read a high Kd as lower affinity. In general, koff refers to the first-order rate constant of dissociation. High values mean fast dissociation, low ones slow dissociation. As a reminder, the kon is the second-order rate constant of association. A low value points to slow association. B1: in assay [2] (P1 = T), the dissociation constant Kd worked out at 488 nM, the “koff” value turned out to be 0.0111 s⁻¹ and the “kon” value worked out at 23300 M⁻¹ s⁻¹. Also, in assay [2] (P1 = V), the equilibrium dissociation constant (Kd) came out at 20 nM, the “koff” value worked out at 0.000473 s⁻¹ and the “kon” value stood at 23700 M⁻¹ s⁻¹.
